Data taken from patent publication US20220323406A1, “METHODS AND COMPOSITIONS FOR DIFFERENTIATING STEM CELLS” (Massachusetts Institute of Technology, priority 2019, published 2022).

What was measured:
Settings in all cases: primary screen
[1] = test system: ENR+CD organoids; assay: Primary screen: ATP (CellTiter-Glo 3D, CTG) cell number/viability, 2.5-D 384-well ENR+CD organoids;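 note: compounds given at plating and again on day 3 over a 6-day differentiation from ENR+CV stem-cell-enriched precursors, ATP measured on day 6, plate median as control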
[2] = test system: ENR+CD organoids (ISC to Paneth cell differentiation); assay: Primary screen: CCh-stimulated lysozyme secretion LYZ.S, 2.5-D 384-well ENR+CD organoid differentiation; assay type: cell-based, mouse
Source text: (§1) High-throughput screening.

[3] = test system: ENR+CD organoids (ISC to Paneth cell differentiation); assay: Primary screen: basal (non-stimulated) lysozyme secretion LYZ.NS, 2.5-D 384-well ENR+CD organoid differentiation; assay type: cell-based, mouse
Source text: as §1

[4] = 1st dose row of the treatment (0.08 uM by row order; dose not reprinted)
[5] = 2nd dose row of the treatment (0.40 uM by row order; dose not reprinted)
[6] = 3rd dose row of the treatment (2.00 uM by row order; dose not reprinted)
[7] = 4th dose row of the treatment (10.00 uM by row order; dose not reprinted)

| SMILES | SSMD.CTG.Rep (strictly standardized mean difference) [1, 4] | SSMD.CTG.Rep (strictly standardized mean difference) [1, 5] | SSMD.CTG.Rep (strictly standardized mean difference) [1, 6] | SSMD.CTG.Rep (strictly standardized mean difference) [1, 7] | Dose.FC.CTG ([1]; dose 0.08 uM) [log2 fold change] | Z.CTG (standard z score) ([1]; dose 0.08 uM) | Dose.FC.CTG ([1]; dose 0.40 uM) [log2 fold change] | Z.CTG (standard z score) ([1]; dose 0.40 uM) | Dose.FC.CTG ([1]; dose 2.00 uM) [log2 fold change] | Z.CTG (standard z score) ([1]; dose 2.00 uM) | Dose.FC.CTG ([1]; dose 10.00 uM) [log2 fold change] | Z.CTG (standard z score) ([1]; dose 10.00 uM) | SSMD.LYZ.S_Rep (strictly standardized mean difference) [2, 4] | Z.LYZ.S (standard z score) [2, 4] | SSMD.LYZ.S_Rep (strictly standardized mean difference) [2, 5] | Z.LYZ.S (standard z score) [2, 5] | SSMD.LYZ.S_Rep (strictly standardized mean difference) [2, 6] | Z.LYZ.S (standard z score) [2, 6] | SSMD.LYZ.S_Rep (strictly standardized mean difference) [2, 7] | Z.LYZ.S (standard z score) [2, 7] | also measured |
| --- | --- | --- | --- | --- | --- | --- | --- | --- | --- | --- | --- | --- | --- | --- | --- | --- | --- | --- | --- | --- | --- |
| CC(C)N(CC[C@H](c1ccccc1)c1cc(CO)ccc1O)C(C)C [4CE°8C] | −0.402 | 0.023 | −0.340 | −0.109 | −0.111 | −0.265 | 0.007 | 0.018 | −0.162 | −0.387 | −0.039 | −0.094 | 0.194 | 0.205 | 0.053 | 0.073 | −0.217 | −0.358 | −0.707 | −0.836 | Dose.FC.LYZ.S ([2]; dose 0.08 uM): 0.032 log2 fold change; Dose.FC.LYZ.S ([2]; dose 0.40 uM): 0.011 log2 fold change; Dose.FC.LYZ.S ([2]; dose 2.00 uM): −0.055 log2 fold change; Dose.FC.LYZ.S ([2]; dose 10.00 uM): −0.129 log2 fold change; SSMD.LYZ.NS_Rep (strictly standardized mean difference) [3, 4]: 0.497; SSMD.LYZ.NS_Rep (strictly standardized mean difference) [3, 5]: 0.226; SSMD.LYZ.NS_Rep (strictly standardized mean difference) [3, 6]: 0.128; SSMD.LYZ.NS_Rep (strictly standardized mean difference) [3, 7]: −0.861; Dose.FC.LYZ.NS ([3]; dose 0.08 uM): 0.069 log2 fold change; Z.LYZ.NS (standard z score) ([3]; dose 0.08 uM): 0.601; Dose.FC.LYZ.NS ([3]; dose 0.40 uM): 0.047 log2 fold change; Z.LYZ.NS (standard z score) ([3]; dose 0.40 uM): 0.413; Dose.FC.LYZ.NS ([3]; dose 2.00 uM): 0.016 log2 fold change; Z.LYZ.NS (standard z score) ([3]; dose 2.00 uM): 0.138; Dose.FC.LYZ.NS ([3]; dose 10.00 uM): −0.095 log2 fold change; Z.LYZ.NS (standard z score) ([3]; dose 10.00 uM): −0.827 |
| O=C(O)c1ccc(N2C(=O)/C(=C\c3ccc(-c4ccc([N+](=O)[O-])cc4)o3)C=C2c2ccccc2)cc1 [4E1RCat] | 0.790 | 0.559 | 0.022 | −0.026 | 0.246 | 0.587 | 0.362 | 0.864 | 0.006 | 0.015 | −0.011 | −0.026 | 0.712 | 0.690 | 0.185 | 0.247 | 0.311 | 0.316 | 0.321 | 0.530 | Dose.FC.LYZ.S ([2]; dose 0.08 uM): 0.107 log2 fold change; Dose.FC.LYZ.S ([2]; dose 0.40 uM): 0.038 log2 fold change; Dose.FC.LYZ.S ([2]; dose 2.00 uM): 0.049 log2 fold change; Dose.FC.LYZ.S ([2]; dose 10.00 uM): 0.082 log2 fold change; SSMD.LYZ.NS_Rep (strictly standardized mean difference) [3, 4]: 0.883; SSMD.LYZ.NS_Rep (strictly standardized mean difference) [3, 5]: −0.121; SSMD.LYZ.NS_Rep (strictly standardized mean difference) [3, 6]: 0.437; SSMD.LYZ.NS_Rep (strictly standardized mean difference) [3, 7]: 0.053; Dose.FC.LYZ.NS ([3]; dose 0.08 uM): 0.100 log2 fold change; Z.LYZ.NS (standard z score) ([3]; dose 0.08 uM): 0.874; Dose.FC.LYZ.NS ([3]; dose 0.40 uM): −0.018 log2 fold change; Z.LYZ.NS (standard z score) ([3]; dose 0.40 uM): −0.154; Dose.FC.LYZ.NS ([3]; dose 2.00 uM): 0.151 log2 fold change; Z.LYZ.NS (standard z score) ([3]; dose 2.00 uM): 1.316; Dose.FC.LYZ.NS ([3]; dose 10.00 uM): 0.007 log2 fold change; Z.LYZ.NS (standard z score) ([3]; dose 10.00 uM): 0.062 |
| CC(C)N(CC[C@H](c1ccccc1)c1cc(CO)ccc1O)C(C)C [5-hydroxymethyl Tolterodine (PNU 200577, 5-HMT, 5-HM)] | −0.118 | 0.291 | 0.114 | 0.061 | −0.062 | −0.149 | 0.087 | 0.207 | 0.034 | 0.082 | 0.017 | 0.040 | 0.460 | 0.417 | 0.266 | 0.231 | 0.174 | 0.152 | −0.042 | −0.044 | Dose.FC.LYZ.S ([2]; dose 0.08 uM): 0.065 log2 fold change; Dose.FC.LYZ.S ([2]; dose 0.40 uM): 0.036 log2 fold change; Dose.FC.LYZ.S ([2]; dose 2.00 uM): 0.023 log2 fold change; Dose.FC.LYZ.S ([2]; dose 10.00 uM): −0.007 log2 fold change; SSMD.LYZ.NS_Rep (strictly standardized mean difference) [3, 4]: 0.915; SSMD.LYZ.NS_Rep (strictly standardized mean difference) [3, 5]: 0.760; SSMD.LYZ.NS_Rep (strictly standardized mean difference) [3, 6]: 0.947; SSMD.LYZ.NS_Rep (strictly standardized mean difference) [3, 7]: 0.223; Dose.FC.LYZ.NS ([3]; dose 0.08 uM): 0.184 log2 fold change; Z.LYZ.NS (standard z score) ([3]; dose 0.08 uM): 1.599; Dose.FC.LYZ.NS ([3]; dose 0.40 uM): 0.076 log2 fold change; Z.LYZ.NS (standard z score) ([3]; dose 0.40 uM): 0.665; Dose.FC.LYZ.NS ([3]; dose 2.00 uM): 0.154 log2 fold change; Z.LYZ.NS (standard z score) ([3]; dose 2.00 uM): 1.344; Dose.FC.LYZ.NS ([3]; dose 10.00 uM): 0.034 log2 fold change; Z.LYZ.NS (standard z score) ([3]; dose 10.00 uM): 0.293 |
| C=CCNC1=C2C[C@@H](C)C[C@H](OC)[C@H](O)[C@@H](C)/C=C(\C)[C@H](OC(N)=O)[C@@H](OC)/C=C\C=C(/C)C(=O)NC(=CC1=O)C2=O [17-AAG (Tanespimycin)] | −0.926 | −1.023 | −1.783 | −1.348 | −1.012 | −2.418 | −1.262 | −3.015 | −1.459 | −3.486 | −1.446 | −3.454 | −1.387 | −1.826 | −1.428 | −2.199 | −1.462 | −2.219 | −1.655 | −1.975 | Dose.FC.LYZ.S ([2]; dose 0.08 uM): −0.282 log2 fold change; Dose.FC.LYZ.S ([2]; dose 0.40 uM): −0.340 log2 fold change; Dose.FC.LYZ.S ([2]; dose 2.00 uM): −0.343 log2 fold change; Dose.FC.LYZ.S ([2]; dose 10.00 uM): −0.306 log2 fold change; SSMD.LYZ.NS_Rep (strictly standardized mean difference) [3, 4]: −1.180; SSMD.LYZ.NS_Rep (strictly standardized mean difference) [3, 5]: −1.186; SSMD.LYZ.NS_Rep (strictly standardized mean difference) [3, 6]: −1.053; SSMD.LYZ.NS_Rep (strictly standardized mean difference) [3, 7]: −1.183; Dose.FC.LYZ.NS ([3]; dose 0.08 uM): −0.193 log2 fold change; Z.LYZ.NS (standard z score) ([3]; dose 0.08 uM): −1.682; Dose.FC.LYZ.NS ([3]; dose 0.40 uM): −0.205 log2 fold change; Z.LYZ.NS (standard z score) ([3]; dose 0.40 uM): −1.786; Dose.FC.LYZ.NS ([3]; dose 2.00 uM): −0.142 log2 fold change; Z.LYZ.NS (standard z score) ([3]; dose 2.00 uM): −1.239; Dose.FC.LYZ.NS ([3]; dose 10.00 uM): −0.187 log2 fold change; Z.LYZ.NS (standard z score) ([3]; dose 10.00 uM): −1.631 |
